Assay results reported in the supplement of paper PMC10307832.

Tests used:
Assay in all cases: relative viability (nuclei count vs DMSO), 5 days (fraction); higher = more cells survive
201T = system: 201T
Summary of the method: (§1)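 Lung cancer cell lines were seeded in 1536-well plates and dosed by pin tool the next day, with either a single drug or a fixed anchor-drug dose combined with five library-drug doses (not always all listed) spaced in √10 steps. Five days later, one step fixed the cells and stained their nuclei (final 0.05% Triton X-100, 1% formaldehyde, 1 ug/ml Hoechst), and nuclei were counted on 4× images. Relative viability is the nuclei count in treated wells divided by the count in vehicle wells, and each value is the median of duplicate plates.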

ABC-1 = system: ABC-1
Summary of the method: as §1

BEN = system: BEN
Summary of the method: as §1

CAL-12T = system: CAL-12T
Summary of the method: as §1

COR-L 105 = system: COR-L 105
Summary of the method: as §1

EKVX = system: EKVX
Summary of the method: as §1

HARA = system: HARA
Summary of the method: as §1

HCC-366 = system: HCC-366
Summary of the method: as §1

LK-2 = system: LK-2
Summary of the method: as §1

LOU-NH91 = system: LOU-NH91
Summary of the method: as §1

NCI-H1437 = system: NCI-H1437
Summary of the method: as §1

NCI-H1650 = system: NCI-H1650
Summary of the method: as §1

NCI-H1666 = system: NCI-H1666
Summary of the method: as §1

NCI-H2009 = system: NCI-H2009
Summary of the method: as §1

NCI-H2170 = system: NCI-H2170
Summary of the method: as §1

NCI-H3122 = system: NCI-H3122
Summary of the method: as §1

NCI-H441 = system: NCI-H441
Summary of the method: as §1

NCI-H460 = system: NCI-H460
Summary of the method: as §1

NCI-H661 = system: NCI-H661
Summary of the method: as §1

NCI-H727 = system: NCI-H727
Summary of the method: as §1

PC-14 = system: PC-14
Summary of the method: as §1

Cc1sc2c(c1C)C(c1ccc(Cl)cc1)=N[C@@H](CC(=O)OC(C)(C)C)c1nnc(C)n1-2 [JQ1] + C[C@@H](Oc1cc(-c2cnn(C3CCNCC3)c2)cnc1N)c1c(Cl)ccc(F)c1Cl [Crizotinib] (partner 1 µM)
relative viability (201T; first compound 0.04 µM): 1.05
relative viability (201T; first compound 0.1265 µM): 0.882
relative viability (201T; first compound 0.4 µM): 0.93
relative viability (201T; first compound 1.265 µM): 0.73
relative viability (201T; first compound 4 µM): 0.602
relative viability (ABC-1; first compound 0.04 µM): 0.844
relative viability (ABC-1; first compound 0.1265 µM): 1.09
relative viability (ABC-1; first compound 0.4 µM): 0.988
relative viability (ABC-1; first compound 1.265 µM): 0.569
relative viability (ABC-1; first compound 4 µM): 0.276
relative viability (BEN; first compound 0.04 µM): 0.67
relative viability (BEN; first compound 0.1265 µM): 0.84
relative viability (BEN; first compound 0.4 µM): 0.51
relative viability (BEN; first compound 1.265 µM): 0.335
relative viability (BEN; first compound 4 µM): 0.229
relative viability (CAL-12T; first compound 0.04 µM): 0.528
relative viability (CAL-12T; first compound 0.1265 µM): 0.316
relative viability (CAL-12T; first compound 0.4 µM): 0.316
relative viability (CAL-12T; first compound 1.265 µM): 0.133
relative viability (CAL-12T; first compound 4 µM): 0.103
relative viability (COR-L 105; first compound 0.04 µM): 0.705
relative viability (COR-L 105; first compound 0.1265 µM): 0.25
relative viability (COR-L 105; first compound 0.4 µM): 0.403
relative viability (COR-L 105; first compound 1.265 µM): 0.245
relative viability (COR-L 105; first compound 4 µM): 0.267
relative viability (EKVX; first compound 0.04 µM): 0.713
relative viability (EKVX; first compound 0.1265 µM): 0.749
relative viability (EKVX; first compound 0.4 µM): 0.938
relative viability (EKVX; first compound 1.265 µM): 0.707
relative viability (EKVX; first compound 4 µM): 0.489
relative viability (HARA; first compound 0.04 µM): 0.945
relative viability (HARA; first compound 0.1265 µM): 0.714
relative viability (HARA; first compound 0.4 µM): 0.337
relative viability (HARA; first compound 1.265 µM): 0.366
relative viability (HARA; first compound 4 µM): 0.308
relative viability (HCC-366; first compound 0.04 µM): 0.457
relative viability (HCC-366; first compound 0.4 µM): 0.41
relative viability (HCC-366; first compound 1.265 µM): 0.243
relative viability (HCC-366; first compound 4 µM): 0.103
relative viability (LK-2; first compound 0.04 µM): 0.208
relative viability (LK-2; first compound 0.1265 µM): 0.224
relative viability (LK-2; first compound 0.4 µM): 0.212
relative viability (LK-2; first compound 1.265 µM): 0.232
relative viability (LK-2; first compound 4 µM): 0.198
relative viability (LOU-NH91; first compound 0.04 µM): 0.719
relative viability (LOU-NH91; first compound 0.1265 µM): 0.693
relative viability (LOU-NH91; first compound 0.4 µM): 0.531
relative viability (LOU-NH91; first compound 1.265 µM): 0.53
relative viability (LOU-NH91; first compound 4 µM): 0.419
relative viability (NCI-H1437; first compound 0.04 µM): 0.849
relative viability (NCI-H1437; first compound 0.1265 µM): 0.896
relative viability (NCI-H1437; first compound 0.4 µM): 0.666
relative viability (NCI-H1437; first compound 1.265 µM): 0.29
relative viability (NCI-H1437; first compound 4 µM): 0.248
relative viability (NCI-H1650; first compound 0.04 µM): 0.948
relative viability (NCI-H1650; first compound 0.1265 µM): 0.609
relative viability (NCI-H1650; first compound 0.4 µM): 0.735
relative viability (NCI-H1650; first compound 1.265 µM): 0.126
relative viability (NCI-H1650; first compound 4 µM): 0.141
relative viability (NCI-H1666; first compound 0.04 µM): 0.771
relative viability (NCI-H1666; first compound 0.1265 µM): 0.841
relative viability (NCI-H1666; first compound 0.4 µM): 0.669
relative viability (NCI-H1666; first compound 1.265 µM): 0.451
relative viability (NCI-H1666; first compound 4 µM): 0.481
relative viability (NCI-H2009; first compound 0.04 µM): 0.969
relative viability (NCI-H2009; first compound 0.1265 µM): 0.627
relative viability (NCI-H2009; first compound 0.4 µM): 0.572
relative viability (NCI-H2009; first compound 1.265 µM): 0.301
relative viability (NCI-H2009; first compound 4 µM): 0.211
relative viability (NCI-H2170; first compound 0.04 µM): 0.997
relative viability (NCI-H2170; first compound 0.1265 µM): 1.12
relative viability (NCI-H2170; first compound 0.4 µM): 0.72
relative viability (NCI-H2170; first compound 1.265 µM): 0.599
relative viability (NCI-H2170; first compound 4 µM): 0.517
relative viability (NCI-H3122; first compound 0.04 µM): 0.312
relative viability (NCI-H3122; first compound 0.1265 µM): 0.315
relative viability (NCI-H3122; first compound 0.4 µM): 0.354
relative viability (NCI-H3122; first compound 1.265 µM): 0.323
relative viability (NCI-H3122; first compound 4 µM): 0.413
relative viability (NCI-H441; first compound 0.04 µM): 0.813
relative viability (NCI-H441; first compound 0.1265 µM): 0.616
relative viability (NCI-H441; first compound 0.4 µM): 0.713
relative viability (NCI-H441; first compound 1.265 µM): 0.297
relative viability (NCI-H441; first compound 4 µM): 0.221
relative viability (NCI-H460; first compound 0.04 µM): 0.806
relative viability (NCI-H460; first compound 0.1265 µM): 0.597
relative viability (NCI-H460; first compound 0.4 µM): 0.532
relative viability (NCI-H460; first compound 1.265 µM): 0.0339
relative viability (NCI-H460; first compound 4 µM): 0.0299
relative viability (NCI-H661; first compound 0.04 µM): 1
relative viability (NCI-H661; first compound 0.1265 µM): 1.08
relative viability (NCI-H661; first compound 1.265 µM): 1.05
relative viability (NCI-H661; first compound 4 µM): 0.776
relative viability (NCI-H727; first compound 0.04 µM): 0.823
relative viability (NCI-H727; first compound 0.1265 µM): 1.02
relative viability (NCI-H727; first compound 0.4 µM): 0.631
relative viability (NCI-H727; first compound 1.265 µM): 0.338
relative viability (NCI-H727; first compound 4 µM): 0.362
relative viability (PC-14; first compound 0.04 µM): 0.907
relative viability (PC-14; first compound 0.1265 µM): 0.781
relative viability (PC-14; first compound 0.4 µM): 0.776
relative viability (PC-14; first compound 1.265 µM): 0.611
relative viability (PC-14; first compound 4 µM): 0.426
